The structures appear in SMILES notation.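 Protocol summary: plate cells (96-well), add compound at 5 concentrations, incubate 48 h, interpolate endpoints linearly. Here, GI50 denotes the concentration required for 50% inhibition of growth. TGI: concentration producing complete growth inhibition.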

GI50 and TGI data for eight compounds are collected here from PubChem BioAssay (NCI).

Among the test systems are OVCAR-4 ovarian; IGROV1 ovarian; NCI/ADR-RES ovarian; U251 CNS; SF-268 CNS; RXF 393 renal; LOX IMVI melanoma; CCRF-CEM leukemia; UO-31 renal; MOLT-4 leukemia.
Common to all, as to experiment: growth of human tumour cells (NCI), 48 h

Take `CSc1nnc(CCSc2ccnc3c(C(F)(F)F)cccc23)o1`: the GI50 is 40.7 µM with OVCAR-4 ovarian; 83.2 µM with IGROV1 ovarian; 72.2 µM in the experiment on NCI/ADR-RES ovarian; more than 100 µM in the experiment on U251 CNS; 71.5 µM in the experiment on SF-268 CNS; 65.3 µM in the experiment with RXF 393 renal. In addition, the GI50 in the experiment with LOX IMVI melanoma was more than 100 µM; in the experiment on CCRF-CEM leukemia it was 67.9 µM; in the experiment with UO-31 renal, 86.8 µM; with MOLT-4 leukemia, 27.7 µM. Besides, the TGI in the experiment on OVCAR-4 ovarian, in the experiment with IGROV1 ovarian, in the experiment on NCI/ADR-RES ovarian, in the experiment on U251 CNS, in the experiment with SF-268 CNS and with RXF 393 renal was more than 100 µM throughout. Also, the TGI in the experiment with LOX IMVI melanoma, in the experiment on CCRF-CEM leukemia, in the experiment with UO-31 renal and in the experiment with MOLT-4 leukemia was more than 100 µM throughout.
`O=C(O)CS(=O)(=O)C(c1ccccc1)c1ccccc1`: the TGI with OVCAR-4 ovarian, in the experiment on IGROV1 ovarian, in the experiment with NCI/ADR-RES ovarian, with U251 CNS, with SF-268 CNS and with RXF 393 renal was more than 100 µM each time. Moreover, the TGI with LOX IMVI melanoma, in the experiment on CCRF-CEM leukemia, with UO-31 renal and with MOLT-4 leukemia was more than 100 µM throughout.
On to `c1ccc2nc(Cn3c[n+](Cc4ccc5ccccc5n4)c4ccccc43)ccc2c1`, for which the GI50 in the experiment with OVCAR-4 ovarian is 1.49 µM; with IGROV1 ovarian it was 1.65 µM; in the experiment on NCI/ADR-RES ovarian it was more than 100 µM; in the experiment on U251 CNS, 3.08 µM; in the experiment with SF-268 CNS, 2.97 µM; in the experiment with RXF 393 renal it was 3.1 µM. For the same compound, the GI50 in the experiment on LOX IMVI melanoma was 1.91 µM; with CCRF-CEM leukemia it was 3.47 µM; with UO-31 renal, 7.08 µM; in the experiment on MOLT-4 leukemia, 3.37 µM. Further, the TGI with OVCAR-4 ovarian is 11.6 µM; with IGROV1 ovarian, 8.27 µM; in the experiment with NCI/ADR-RES ovarian it was more than 100 µM; with U251 CNS, 12.8 µM; in the experiment with SF-268 CNS it was 14.2 µM; in the experiment with RXF 393 renal, 12 µM. Besides, the TGI in the experiment with LOX IMVI melanoma amounted to 7.8 µM; in the experiment on CCRF-CEM leukemia it was 21 µM; with UO-31 renal, 21.7 µM; with MOLT-4 leukemia, 13 µM.
Take `CCn1c(-c2nonc2N)nc2cncc(C(=O)N3CCNCC3)c21`: the GI50 in the experiment with OVCAR-4 ovarian, in the experiment on IGROV1 ovarian, in the experiment with NCI/ADR-RES ovarian, in the experiment on U251 CNS, in the experiment on SF-268 CNS and in the experiment with RXF 393 renal was more than 25 µM throughout. The GI50 with LOX IMVI melanoma, with CCRF-CEM leukemia, in the experiment with UO-31 renal and with MOLT-4 leukemia was more than 25 µM throughout. The TGI in the experiment on OVCAR-4 ovarian, in the experiment on IGROV1 ovarian, in the experiment with NCI/ADR-RES ovarian, with U251 CNS, in the experiment on SF-268 CNS and in the experiment on RXF 393 renal was more than 25 µM in each case. Also, the TGI with LOX IMVI melanoma, in the experiment with CCRF-CEM leukemia, with UO-31 renal and in the experiment with MOLT-4 leukemia was more than 25 µM each time.
For the compound `COc1cc(Cn2cc3c(c2)-c2oncc2CC3)cc(OC)c1OC`, the GI50 with OVCAR-4 ovarian is 0.152 µM; in the experiment on IGROV1 ovarian it was 0.0456 µM; in the experiment with NCI/ADR-RES ovarian, 0.0268 µM; in the experiment with U251 CNS, 0.0387 µM; with SF-268 CNS, 0.0778 µM; with RXF 393 renal it was 0.0255 µM. Moreover, the GI50 in the experiment with LOX IMVI melanoma was 0.0716 µM; in the experiment with CCRF-CEM leukemia it was 0.0193 µM; in the experiment on UO-31 renal, 0.0594 µM; in the experiment with MOLT-4 leukemia, 0.0338 µM. For the same compound, the TGI in the experiment on OVCAR-4 ovarian is more than 100 µM; in the experiment on IGROV1 ovarian, 24.8 µM; in the experiment with U251 CNS, more than 100 µM; in the experiment with SF-268 CNS it was more than 55.4 µM; in the experiment on RXF 393 renal, more than 100 µM; with LOX IMVI melanoma it was more than 100 µM. For the same compound, the values for the TGI in the experiment with CCRF-CEM leukemia, in the experiment on UO-31 renal and with MOLT-4 leukemia were 16.7 µM, 15.1 µM and 13.1 µM, respectively.
In the case of `CCc1c(C)[nH]c(/C=C2\N=C(c3ccc[nH]3)C=C2OC)c1C`, the GI50 in the experiment with OVCAR-4 ovarian was 0.893 µM; in the experiment with IGROV1 ovarian it was 0.274 µM; with NCI/ADR-RES ovarian it was 0.17 µM; in the experiment on U251 CNS, 0.275 µM; in the experiment with SF-268 CNS it was 0.224 µM; in the experiment on RXF 393 renal, 0.473 µM. The GI50 is less than 0.0328 µM in the experiment on LOX IMVI melanoma, less than 0.0257 µM with CCRF-CEM leukemia, 0.176 µM in the experiment on UO-31 renal and less than 0.0394 µM in the experiment on MOLT-4 leukemia. For the same compound, the TGI came to 12.5 µM in the experiment with OVCAR-4 ovarian; 3.53 µM with IGROV1 ovarian; 6.42 µM in the experiment on NCI/ADR-RES ovarian; 7.33 µM in the experiment with U251 CNS; 11.3 µM with SF-268 CNS; 4.11 µM in the experiment on RXF 393 renal. The TGI with CCRF-CEM leukemia was 2.11 µM; in the experiment on UO-31 renal, 0.591 µM; with MOLT-4 leukemia, 4.18 µM.
For `Cc1cc(N2CCCCC2)nc(N(CCNc2ccnc3cc(Cl)ccc23)Cc2ccco2)n1`, the GI50 was 1.8 µM in the experiment with OVCAR-4 ovarian; 1.28 µM in the experiment with IGROV1 ovarian; 1.79 µM in the experiment with NCI/ADR-RES ovarian; 1.73 µM in the experiment with U251 CNS; 2.57 µM with SF-268 CNS; 1.56 µM in the experiment with RXF 393 renal. Besides, the GI50 with LOX IMVI melanoma was 1.66 µM; in the experiment with CCRF-CEM leukemia it was 2.47 µM; with UO-31 renal it was 1.41 µM; with MOLT-4 leukemia it was 2.29 µM. Besides, the TGI in the experiment with OVCAR-4 ovarian was found to be 4.42 µM; in the experiment with IGROV1 ovarian, 3.65 µM; in the experiment on NCI/ADR-RES ovarian, 3.71 µM; in the experiment with U251 CNS it was 3.19 µM; in the experiment on SF-268 CNS, 6.53 µM; in the experiment with RXF 393 renal, 3.32 µM. Besides, the TGI with LOX IMVI melanoma worked out at 3.09 µM; in the experiment on CCRF-CEM leukemia, 8.76 µM; in the experiment on UO-31 renal, 2.77 µM; with MOLT-4 leukemia it was 5.31 µM.
In the case of `O=c1cc(CNc2cc(F)cc(F)c2)c2ccc(I)cc2[nH]1`, the GI50 with OVCAR-4 ovarian was 72.7 µM; in the experiment on IGROV1 ovarian, 2.56 µM; with NCI/ADR-RES ovarian, 0.537 µM; with U251 CNS, 0.574 µM; with RXF 393 renal, 0.374 µM; with LOX IMVI melanoma, 0.679 µM. For the same compound, the GI50 with CCRF-CEM leukemia is 0.498 µM; in the experiment on UO-31 renal, 4.27 µM; in the experiment with MOLT-4 leukemia it was 1.06 µM. Further, the TGI in the experiment with OVCAR-4 ovarian was more than 100 µM; with IGROV1 ovarian, more than 100 µM; in the experiment with NCI/ADR-RES ovarian, more than 100 µM; in the experiment on U251 CNS, more than 100 µM; in the experiment with SF-268 CNS, more than 100 µM; with RXF 393 renal it was 38 µM. Also, the TGI was more than 100 µM in the experiment with LOX IMVI melanoma, more than 57.7 µM with CCRF-CEM leukemia, more than 100 µM in the experiment on UO-31 renal and more than 100 µM in the experiment with MOLT-4 leukemia.
